Tests used:
[1] = tested on: primary cultured cortex neurons; assay: Cell assay: fluorescent microscopy of intracellular ONOO− production after SIN-1; assay type: cell-based, Sprague-Dawley rats; conditions: probe 20 μM for 15 mins, then 10 and 100 μM SIN-1 for 15 mins; fluorescent microscopy (FIG. 24)
Protocol: Throughout this study, primary cultured cortex neurons were prepared from embryonic day 15 Sprague-Dawley rats. Briefly, dissociated cell suspensions were plated at a density of 2×10^6 cells/well on poly-L-lysine-coated 6-well plates (BD Biosciences, San Diego, Calif., USA) with Neurobasal/2% B27 (Gibco-BRL, Grand Island, N.Y.) containing glutamine (0.5 mM, Sigma Chemical Company, St. Louis, Mo.), penicillin (100 U/mL) and streptomycin (100 μg/mL). The cells were maintained in a humidified incubator at 37° C., in 5% CO2-95% air. On the tenth day, cultured cortical cells were used for experimentation. The primary cultured neuronal cells were incubated with the ss-6 and ss-12 at the concentration of 20 μM for 15 mins and then washed with sodium phosphate buffer (100 mM, pH 7.4) for 3 times. After that, the cells were treated with 10 and 100 μM SIN-1 (3-Morpholino-sydnonimine-HCl) for 15 mins. After washed with sodium phosphate buffer (100 mM, pH 7.4), the cells were observed under fluorescent microscopy.

[2] = Fluorescence spectrum after reaction of probe with 15 equiv ONOO−; conditions: ss-6 20 μM, 30 min, room temperature, excitation 515 nm, FIG. 9 vs FIG. 8
Protocol: (§1) Compound ss-6 obtained in Example 1 was dissolved in CH3CN to a concentration of 2 mM, and then the solution was added a 100 mM sodium phosphate buffer (pH 7.4) for dissolution to a final concentration of 20 μM. The excitation spectrum and the fluorescence spectrum of the 20 μM ss-6 solution were measured using a Perkin Elmer LS50 fluorescence spectrometer. Slit width was 5 nm for both the excitation spectrum and the fluorescence spectrum, and the photomultiplier voltage was 775 V. The measurement was carried out at the excitation wavelength of 515 nm. […]
Subsequently, 15 equiv of ONOO^− solution with different concentration was slowly added to a 20 μM ss-6 solution with vigorous stirring at room temperature. […] The changes in fluorescence intensity were measured after 30 min. The excitation spectrum and the fluorescence spectrum of the solution after the completion of the reaction were measured using the same conditions as described above.
Compound ss-12 obtained in Example 5 was dissolved in CH3CN to a concentration of 2 mM, and then the solution was added a 100 mM sodium phosphate buffer (pH 7.4) for dissolution at a final concentration of 20 μM. The excitation spectrum and the fluorescence spectrum of the 20 μM ss-12 solution were measured using a Perkin Elmer® LS50 fluorescence spectrometer. […]

[3] = Specificity of probe with different reactive oxygen species: fluorescence change with singlet oxygen; conditions: ss-6 20 μM, phosphate buffer pH 7.4; 3-(1,4-dihydro-1,4-epidioxy-1-napthyl)propionic acid at 37° C. (50 μL, 20 mM)
Protocol: (§2) Compound ss-6 obtained in Example 1 was dissolved in CH3CN to a concentration of 2 mM, and then the solution was added a 100 mM sodium phosphate buffer (pH 7.4) for dissolution to a final concentration of 20 μM. The excitation spectrum and the fluorescence spectrum of the 20 μM ss-6 solution were measured using a Perkin Elmer LS50 fluorescence spectrometer. Slit width was 5 nm for both the excitation spectrum and the fluorescence spectrum, and the photomultiplier voltage was 775 V. The measurement was carried out at the excitation wavelength of 515 nm.
(§3) Compound ss-6 obtained in Example 1 was dissolved in CH3CN to a concentration of 2 mM, and then the solution was added with a 100 mM sodium phosphate buffer (pH 7.4) for dissolution at a final concentration of 20 μM. […] The changes in fluorescence intensity before and after the treatment were measured. The fluorescence intensity was measured under the same conditions as those in Example 2. Each concentration of the fluorescence probe was 20 μM (a 100 mM sodium phosphate buffer, pH 7.4).
(§4) Compound ss-12 obtained in Example 5 was dissolved in CH3CN to a concentration of 2 mM, and then the solution was added with a 100 mM sodium phosphate buffer (pH 7.4) for dissolution at a final concentration of 20 μM. […] The changes in fluorescence intensity before and after the treatment were measured. […]

[4] = Specificity of probe with different reactive oxygen species: fluorescence change with hydroxyl radical; conditions: ss-6 20 μM, phosphate buffer pH 7.4; Fe(ClO4)2 (25 μL, 40 mM) and H2O2 (25 μL, 80 mM)
Protocol: as §2
(§5) Compound ss-6 obtained in Example 1 was dissolved in CH3CN to a concentration of 2 mM, and then the solution was added with a 100 mM sodium phosphate buffer (pH 7.4) for dissolution at a final concentration of 20 μM. 50 μL of different reactive oxygen species (10 equiv) were added independently to 5 mL of the corresponding ss-6 solution. The changes in fluorescence intensity before and after the treatment were measured. The fluorescence intensity was measured under the same conditions as those in Example 2. Each concentration of the fluorescence probe was 20 μM (a 100 mM sodium phosphate buffer, pH 7.4).

[5] = Specificity of probe with different reactive oxygen species: fluorescence change with SIN-1; conditions: ss-6 20 μM, 100 mM sodium phosphate buffer pH 7.4; 10 equiv; SIN-1 generates ONOO− slowly in buffer
Protocol: as §2, §5

[6] = Specificity of probe with different reactive oxygen species: fluorescence change with H2O2; conditions: ss-6 20 μM, phosphate buffer pH 7.4; 10 equiv
Protocol: as §2, §3, §4

[7] = Specificity of probe with different reactive oxygen species: fluorescence change with superoxide; conditions: ss-6 20 μM, phosphate buffer pH 7.4; Xanthine Oxidase then Xanthine (50 μL, 20 mM)
Protocol: as §2, §3, §4

[8] = Specific detection of peroxynitrite: fluorescence versus ONOO− concentration; conditions: probe 20 μM, pH 7.4, after 30 mins
Protocol: (§6) Compound ss-6 obtained in Example 1 was dissolved in CH3CN to a concentration of 2 mM, and then the solution was added with a 100 mM sodium phosphate buffer (pH 7.4) for dissolution at a final concentration of 20 μM. Then peroxynitrite was added to final concentrations of 0, 20, 60, 100, 200, 240 and 300 μM, and the fluorescence spectrum was measured after 30 mins. The fluorescence spectrum was measured under the same conditions as those in Example 2.
as §6, with “Compound ss-12” for “Compound ss-6”, “Example 5” for “Example 1”, “Example 6.” for “Example 2.”

[9] = Specificity of probe with different reactive oxygen species: fluorescence change with ONOO−
Protocol: as §1, §3, §4

With “N,N-diethyl-8-[2-methoxy-(4,4,4-trifluoro-3-oxobutyl)phenyl]-4,4-difluoro-4-bora-3a,4a-diaza-s-indacene-3,5-dicarboxamide [ss-6]” the “measurement of intracellular ONOO− production” value [1] was “satisfactory results”, the “change in fluorescence intensity after reaction with ONOO−” value [2] was “Dramatic increase” and the “changes in fluorescence intensity before and after the treatment, 1O2” value [3] was 3%. For the same substance, the “changes in fluorescence intensity before and after the treatment, •OH” value [4] was 2%, the “changes in fluorescence intensity before and after the treatment, SIN-1” value [5] was 166% and the “changes in fluorescence intensity before and after the treatment, H2O2” value [6] was −5%. The “changes in fluorescence intensity before and after the treatment, O2•−” value [7] was −1%, the “increase in fluorescence intensity with peroxynitrite” value ([8]; peroxynitrite 0, 20, 60, 100, 200, 240 and 300 μM) was “great increase” and the “relationship of fluorescence intensity with the concentration of ONOO−” value ([8]; peroxynitrite 0-300 μM) was “good linear relationship”. For the same substance, the “selectivity for peroxynitrite over other reactive oxygen species” value ([9]; probe 20 μM, phosphate buffer pH 7.4, conclusion from Tables 1 and 2) was “very high selectivity” and the “changes in fluorescence intensity before and after the treatment, ONOO^−” value ([9]; ss-6 20 μM, 100 mM sodium phosphate buffer pH 7.4, 10 equiv ROS, excitation 515 nm) was 750%.

Reference: US7705040B2, “Reagents for highly specific detection of peroxynitrite” (The University of Hong Kong, priority 2005, dated 2010)
